Measured values taken from publication PMC4738305, “Metabolism and Disposition of Aditoprim in Swine, Broilers, Carp and Rats” (Scientific Reports, 2016).
Like-named read-outs stand apart in the source and are kept apart here.

How the values were obtained:
[1] = Concentration and elimination of ADP and its metabolites in liver, kidney, muscle, fat/skin after oral ^3H-ADP for 7 d; assay type: in vivo, carp; conditions: for concentration at 0.25 d / concentration at 1 d / concentration at 3 d / concentration at 7 d / concentration at 14 d / concentration at 21 d: carp, oral; for half-life: po
Description: (§1) A total of 36 animals from each species (swine n = 24) were randomly assigned to six equal treatment groups and administered a single daily dose of ^3 H-ADP at 5 mg/kg b. w. (0.1 Ci/g) through oral gavage for 7 consecutive days. All the animals were housed on the basis of their group in the cages or aquaria throughout the whole study period. A group of animals was slaughtered through exsanguination under diethyl ether inhalation of anesthesia in the period of 6 h, 1, 3, 7, 14, and 21 d after the administration. The blood samples were immediately collected into the heparinized tubes and was centrifuged at 1920 × g at 4 °C for 10 min to obtain the plasma. The tissues from the heart, liver, spleen, lung, kidney, craw (broilers), stomach, intestine, fat, skin, muscle, thymus, pancreas, bile, bladder, hair (scale for carp), genital gland, adrenal glands, swim bladder (carp), brain, lymph, and bursa (broilers) were carefully excised and collected. The tissues were thoroughly rinsed with the deionized water to remove the residuary blood, blotted to dryness, and finally to perform the homogenization. In order to avoid cross-contamination the dissecting instruments were washed during the tissue procurements. The blank tissues were collected in order to provide control matrices. The total radioactivity levels in each sample were determined through LSC. The samples extracted from the plasma, bile, and tissues of the liver, kidney, muscle, and fat/skin were analyzed through LC/MS-IT-TOF and v. ARC radiometric detection for metabolite profiling. The blank samples were used as control to determine the background radioactivity or the endogenous nondrug-related ions observed within respective matrices or their extracts.
(§2) The feces and tissues (2 g) were diluted with a mixture of methanol and chloroform (1:3, v:v; 2 mL/g homogenate). This procedure was carried out in a fume hood for the safety aspects. The pH value was adjusted to 9.0 with NH4OH. The mixture was vortexed and sonicated for 5 min and 10 min, respectively, and finally the samples were centrifuged at 7690 × g for 10 min. The supernatant was aspirated and then transferred into a new centrifuge tube. The obtained pellet was again subjected to the same process of vortex, ultrasonication, extraction, and centrifugation. The combined supernatant was concentrated under a stream of nitrogen in a water bath at 40 °C. The residue was reconstituted with 0.3 mL of methanol–water (1:9, v:v) before the injection into the LC-v. ARC/MS-IT-TOF system for analysis.
(§3) ADP and its metabolites in the prepared samples were determined with a v. ARC radiometric detector and a hybrid IT/TOF mass spectrometer connected to the HPLC system (Shimadzu Corp., Kyoto, Japan). The LC system was equipped with a solvent delivery pump (LC-20AD), an auto-sampler (SIL-20AC), a degasser (DGU-20 A 3), a photodiode array detector (SPD-M20A), a communication base module (CBM-20 A), and a column oven (CTO-20AC). The chromatographic separation was achieved by using an Agilent extend-C18 column (2.1 mm × 150 mm, 5 μm) with a gradient mobile phase of A (0.01% ammonia and 5 mM ammonium acetate in water) and B (methanol) at a flow rate of 0.2 mL/min. The column temperature was maintained at 35 °C. Various HPLC methods were performed because of the large number of different metabolites to be analyzed. For the porcine sample, method 1 started at 5% B and increased to 20% B over 35 min, then to 55% B by 60 min, followed by re-equilibration for another 10 min. For the remaining samples, method 2 started at 10% B and increased to 60% B over 30 min, subsequently was maintained at 60% B for an additional 10 min, and then changed to 90% B over 2 min and maintained for 2 min. Afterwards, a re-equilibration step (decreased to 10% B over 1 min and maintained at 10% B for additional 9 min) was followed. For each matrix, more than 98% of the radioactivity injected into the column was eluted during the running time of the gradient program. […]

[2] = as above; assay type: in vivo, rats; conditions: for half-life: po; for concentration at 0.25 d / concentration at 1 d / concentration at 3 d / concentration at 7 d / concentration at 14 d: oral
Description: as §1, §2, §3

COc1cc(Cc2cnc(N)nc2N)cc(OC)c1N(C)C [A0, 2,4-Diamino-5-[4-(dimethylamino)-3,5-dimethoxybenzyl] pyrimidine]
share of the sample radioactivity in the detected tissues ([1]; carp liver, kidney, muscle, skin, over the sampling times): more than 42%
concentration at 0.25 d ([1]; kidney, 5 mg/kg b.w.): 38900 ± 8000 ng/g
concentration at 1 d ([1]; kidney, 5 mg/kg b.w.): 6470 ± 1250 ng/g
concentration at 3 d ([1]; kidney, 5 mg/kg b.w.): 3010 ± 550 ng/g
concentration at 7 d ([1]; kidney, 5 mg/kg b.w.): 1190 ± 80 ng/g
concentration at 14 d ([1]; kidney, 5 mg/kg b.w.): 680 ± 80 ng/g
concentration at 21 d ([1]; kidney, 5 mg/kg b.w.): 90 ± 20 ng/g
concentration at 0.25 d ([1]; liver, 5 mg/kg b. w.): 13200 ± 3700 ng/g
concentration at 1 d ([1]; liver, 5 mg/kg b. w.): 5750 ± 950 ng/g
concentration at 3 d ([1]; liver, 5 mg/kg b. w.): 2370 ± 470 ng/g
concentration at 7 d ([1]; liver, 5 mg/kg b. w.): 390 ± 100 ng/g
concentration at 14 d ([1]; liver, 5 mg/kg b. w.): 260 ± 40 ng/g
concentration at 21 d ([1]; liver, 5 mg/kg b. w.): 90 ± 10 ng/g
concentration at 0.25 d ([1]; muscle, 5 mg/kg b.w.): 1960 ± 530 ng/g
concentration at 1 d ([1]; muscle, 5 mg/kg b.w.): 1690 ± 410 ng/g
concentration at 3 d ([1]; muscle, 5 mg/kg b.w.): 870 ± 180 ng/g
concentration at 7 d ([1]; muscle, 5 mg/kg b.w.): 410 ± 90 ng/g
concentration at 14 d ([1]; muscle, 5 mg/kg b.w.): 60 ± 10 ng/g
concentration at 0.25 d ([1]; skin, 5 mg/kg b. w.): 3040 ± 520 ng/g
concentration at 1 d ([1]; skin, 5 mg/kg b. w.): 2320 ± 670 ng/g
concentration at 3 d ([1]; skin, 5 mg/kg b. w.): 1330 ± 150 ng/g
concentration at 7 d ([1]; skin, 5 mg/kg b. w.): 800 ± 160 ng/g
concentration at 14 d ([1]; skin, 5 mg/kg b. w.): 60 ± 10 ng/g
half-life ([1]; carp kidney, after 5 mg/kg b. w. for 7 days, read-out: t1/2 of the individual compound (converted)): 89.3 h
half-life ([1]; carp liver, after 5 mg/kg b. w. for 7 days, read-out: t1/2 of the individual compound (converted)): 159 h
half-life ([1]; carp muscle, after 5 mg/kg b. w. for 7 days, read-out: t1/2 of the individual compound (converted)): 68.9 h
half-life ([1]; carp skin, after 5 mg/kg b. w. for 7 days, read-out: t1/2 of the individual compound (converted)): 57.6 h
half-life ([1]; tissues (liver, kidney, muscle, fat/skin), 5 mg/kg, carp tissues, read-out: t1/2 of the individual compound, range over tissues): 57.6 to 159 h
half-life ([2]; rat fat, after 5 mg/kg b. w. for 7 days, read-out: t1/2 of the individual compound (converted)): 62.2 h
half-life ([2]; rat kidney, after 5 mg/kg b. w. for 7 days, read-out: t1/2 of the individual compound (converted)): 76.8 h
half-life ([2]; rat liver, after 5 mg/kg b. w. for 7 days, read-out: t1/2 of the individual compound (converted)): 100 h
half-life ([2]; rat muscle, after 5 mg/kg b. w. for 7 days, read-out: t1/2 of the individual compound (converted)): 70.8 h
concentration at 0.25 d ([2]; rat, fat, 5 mg/kg b. w.): 290 ± 100 ng/g
concentration at 1 d ([2]; rat, fat, 5 mg/kg b. w.): 150 ± 30 ng/g
concentration at 3 d ([2]; rat, fat, 5 mg/kg b. w.): 80 ± 10 ng/g
concentration at 7 d ([2]; rat, fat, 5 mg/kg b. w.): 30 ng/g
concentration at 0.25 d ([2]; rat, kidney, 5 mg/kg b.w.): 3800 ± 1550 ng/g
concentration at 1 d ([2]; rat, kidney, 5 mg/kg b.w.): 1130 ± 430 ng/g
concentration at 3 d ([2]; rat, kidney, 5 mg/kg b.w.): 590 ± 110 ng/g
concentration at 7 d ([2]; rat, kidney, 5 mg/kg b.w.): 350 ± 80 ng/g
concentration at 14 d ([2]; rat, kidney, 5 mg/kg b.w.): 60 ± 10 ng/g
concentration at 0.25 d ([2]; rat, liver, 5 mg/kg b. w.): 6140 ± 1890 ng/g
concentration at 1 d ([2]; rat, liver, 5 mg/kg b. w.): 2830 ± 520 ng/g
concentration at 3 d ([2]; rat, liver, 5 mg/kg b. w.): 1020 ± 270 ng/g
concentration at 7 d ([2]; rat, liver, 5 mg/kg b. w.): 560 ± 120 ng/g
concentration at 14 d ([2]; rat, liver, 5 mg/kg b. w.): 170 ± 30 ng/g
concentration at 0.25 d ([2]; rat, muscle, 5 mg/kg b.w.): 1020 ± 480 ng/g
concentration at 1 d ([2]; rat, muscle, 5 mg/kg b.w.): 700 ± 210 ng/g
concentration at 3 d ([2]; rat, muscle, 5 mg/kg b.w.): 380 ± 90 ng/g
concentration at 7 d ([2]; rat, muscle, 5 mg/kg b.w.): 170 ± 40 ng/g
half-life ([2]; rat, tissues (liver, kidney, muscle, fat/skin), 5 mg/kg, rats tissues, read-out: t1/2 of the individual compound, range over tissues): 62.2 to 100 h
share of the sample radioactivity in the detected tissues ([2]; rats liver, kidney, muscle, fat, over the sampling times): more than 42%
